# Results taken from patent US20230279020A9, “CARM1 INHIBITORS AND USES THEREOF” (Epizyme, Inc., priority 2013, published 2023).
# pIC50: −log10 of the molar value.
# Target: Human CARM1 (PRMT4) (Homo sapiens (Human), UniProt Q86X55)
# Assay: CARM1 enzyme assay on peptide substrate (3H-SAM Flashplate)
# Details: Biochemical potencies, classification codes; read-out: Biochem IC50
# Sequence of Human CARM1 (PRMT4) (Q86X55 other isoform, or with tags, fused parts or gaps isoform Q86X55-1): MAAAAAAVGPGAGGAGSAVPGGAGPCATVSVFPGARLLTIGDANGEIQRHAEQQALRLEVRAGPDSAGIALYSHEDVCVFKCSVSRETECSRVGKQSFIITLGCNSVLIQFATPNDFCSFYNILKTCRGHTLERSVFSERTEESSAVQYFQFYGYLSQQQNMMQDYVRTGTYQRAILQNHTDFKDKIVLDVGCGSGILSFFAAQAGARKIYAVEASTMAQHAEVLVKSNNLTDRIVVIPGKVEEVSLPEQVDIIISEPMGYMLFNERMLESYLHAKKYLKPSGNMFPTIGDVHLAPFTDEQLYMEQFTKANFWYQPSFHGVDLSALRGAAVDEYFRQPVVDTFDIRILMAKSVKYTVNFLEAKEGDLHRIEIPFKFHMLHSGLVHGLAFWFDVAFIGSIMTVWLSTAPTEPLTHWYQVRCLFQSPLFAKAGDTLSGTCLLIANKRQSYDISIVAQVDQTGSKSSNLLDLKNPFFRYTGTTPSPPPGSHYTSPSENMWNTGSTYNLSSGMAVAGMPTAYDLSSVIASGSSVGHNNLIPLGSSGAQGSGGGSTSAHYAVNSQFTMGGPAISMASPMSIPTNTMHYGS
row,SMILES,pIC50
1,CNC[C@@H](O)COc1ccc(F)c(-c2nc(-c3c(C)noc3C)c(C)c(N3Cc4cc(F)cnc4C3)n2)c1 [Example 164-3],> 7.00
2,CNCC(O)COc1cccc(-c2nc(-c3c(C)noc3C)cc(N3CCN(n4c(C)nnc4C)CC3)n2)c1 (centres unmarked) [Example 165-1a],> 7.00
3,CNCC(O)COc1cccc(-c2nc(-c3c(C)noc3C)cc(N3CCN(C4CCOCC4)CC3)n2)c1 (centres unmarked) [Example 166-1a],> 7.00
4,CCS(=O)(=O)N1CCCC(CNc2nc(-c3cccc(OCC(O)CNC)c3)nc(-c3c(C)noc3C)c2C)C1 (centres unmarked) [Example 167-1a],> 7.00
5,CNC[C@@H](O)COc1ccc(Cl)c(-c2nc(N[C@@H]3CCN(C4CC4)C[C@@H]3F)c(C)c(-c3c(C)noc3C)n2)c1 [Example 167-3],> 7.00
6,CCS(=O)(=O)N1CCC(Nc2nc(-c3cccc(OCC(O)CNC)c3)nc(-c3c(C)noc3C)c2C)CC1 (centres unmarked) [Example 168-1a],> 7.00
7,CNC[C@@H](O)COc1ccc(Cl)c(-c2nc(-c3c(C)noc3C)c(Cl)c(N3Cc4cccnc4C3)n2)c1 [Example 168-3],> 7.00
8,CNC[C@H](O)COc1cccc(-c2nc(NC3CCN(C(=O)OC)CC3)c(C)c(-c3c(C)noc3C)n2)c1 [Example 169-1a],> 7.00
9,CNC[C@@H](O)COc1ccc(Cl)c(-c2nc(N[C@H]3CCN(C(=O)OC)[C@@H](C)C3)c(C)c(-c3c(C)noc3C)n2)c1 [Example 169-3],> 7.00
10,CNC[C@@H](O)COc1cccc(-c2nc(NC3CCN(C(=O)OC)CC3)c(C)c(-c3c(C)noc3C)n2)c1 [Example 170-1a],> 7.00
11,CNC[C@@H](O)COc1ccc(Cl)c(-c2nc(N[C@H]3CCN(C4CC4)[C@@H](C)C3)c(C)c(-c3c(C)noc3C)n2)c1 [Example 170-3],> 7.00

# Second part, the compound after the results:
row,pIC50,SMILES
1,> 7.00,CNC[C@@H](O)COc1ccc(Cl)c(-c2nc(-c3c(C)noc3C)c(C)c(N3Cc4cc(Cl)cnc4C3)n2)c1 [Example 156-3]
2,> 7.00,CNCC(O)COc1cccc(-c2nc(NC(C)C3CCOCC3)c(C)c(-c3c(C)noc3C)n2)c1 (centres unmarked) [Example 157-1a]
3,> 7.00,CNC[C@@H](O)COc1ccc(Cl)c(-c2nc(-c3c(C)noc3C)c(C)c(N3Cc4cc(F)cnc4C3)n2)c1 [Example 157-3]
4,> 7.00,CNC[C@@H](O)COc1ccc(Cl)c(-c2nc(-c3c(C)noc3C)c(C)c(N3CCC4(CC3)CN(C3CC3)C4)n2)c1 [Example 158-3]
5,> 7.00,CNCC(O)COc1cccc(-c2nc(NC3(C)CCOCC3)c(F)c(-c3c(C)noc3C)n2)c1 (centres unmarked) [Example 159-1a]
6,> 7.00,CNC[C@@H](O)COc1ccc(Cl)c(-c2nc(-c3c(C)noc3C)c(C)c(N3Cc4ccncc4C3)n2)c1 [Example 159-3]
7,> 7.00,CNCC(O)COc1cccc(-c2nc(C(=O)NC3CCN(C)CC3)cc(-c3c(C)noc3C)n2)c1 (centres unmarked) [Example 160-1a]
8,> 7.00,CNC[C@@H](O)COc1ccc(Cl)c(-c2nc(NC[C@H]3CCCN3C(=O)OC(C)C)c(C)c(-c3c(C)noc3C)n2)c1 [Example 160-3]
9,> 7.00,CNCC(O)COc1cccc(-c2nc(-c3c(C)noc3C)c(C)c(N3CCN(C(=O)OCC(F)F)CC3)n2)c1 (centres unmarked) [Example 161-1a]
10,> 7.00,CCOC(=O)N1CCOC[C@@H]1COc1nc(-c2cc(OC[C@H](O)CNC)ccc2Cl)nc(-c2c(C)noc2C)c1C [Example 161-3]
11,> 7.00,CNCC(O)COc1cccc(-c2nc(-c3c(C)noc3C)c(C)c(N3CC[C@H](C(=O)N(C)C)C3)n2)c1 (some centres unmarked) [Example 162-1a]
12,> 7.00,CNC[C@@H](O)COc1ccc(Cl)c(-c2nc(N[C@@H]3CO[C@@H](C)C3)c(C)c(-c3c(C)noc3C)n2)c1 [Example 162-3]
13,> 7.00,CNCC(O)COc1cccc(-c2nc(N[C@@H]3CC[C@H](O)C3)c(C)c(-c3c(C)noc3C)n2)c1 (some centres unmarked) [Example 163-1a]
14,> 7.00,CNC[C@@H](O)COc1ccc(Cl)c(-c2nc(-c3c(C)noc3C)c(C)c(N3CC(CO)(CO)C3)n2)c1 [Example 163-3]
15,> 7.00,CNCC(O)COc1cccc(-c2nc(-c3c(C)noc3C)c(C)c(N3C[C@@H](C)O[C@@H](C)C3)n2)c1 (some centres unmarked) [Example 164-1a]
